Source: patent US10457687B2, “Aminoacid derivatives, a process for their preparation and pharmaceutical compositions containing them” (LES LABORATOIRES SERVIER, priority 2015, dated 2019)

Columns and labels:
Mcl-1 protein = Mcl-1 protein (Homo sapiens, UniProt Q07820); assay: Inhibition of Mcl-1 by the fluorescence polarisation technique (Method 1 or Method 2); assay type: binding; conditions: for IC50: fluorescence polarisation, Fluorescein labelled ligand, Method 1 (not underlined) or Method 2 (underlined), read-out: IC50 (μM) Mcl-1 FP
In short: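 Binding measured by FP, with Mcl-1 protein and fluorescein-labelled ligand mixed with compounds in an 11-point series at 5% final DMSO. Method 2 used 10 nM each of protein and ligand in phosphate buffer (20 mM Na2HPO4, 1 mM EDTA, 50 mM NaCl, pH 7.4); Method 1 used 5 nM protein, 1 nM ligand in HEPES buffer (10 mM HEPES, 150 mM NaCl, 0.05% Tween 20, pH 7.4).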

[1] = system: H929 multiple myeloma tumour line; assay: In vitro cytotoxicity, MTT assay, 48 hours; assay type: cell-based; conditions: H929 cells, 48 hours exposure, cell viability
Description: The cytotoxicity studies were carried out on the H929 multiple myeloma tumour line.
The cells are distributed onto microplates and exposed to the test compounds for 48 hours.

[2] = partial inhibitors, @ 10 μM test compound
[3] = partial inhibitors, @ 50 μM test compound
[4] = partial inhibitors, @ 200 μM test compound

Sequence of Mcl-1 protein (Q07820 whole entry): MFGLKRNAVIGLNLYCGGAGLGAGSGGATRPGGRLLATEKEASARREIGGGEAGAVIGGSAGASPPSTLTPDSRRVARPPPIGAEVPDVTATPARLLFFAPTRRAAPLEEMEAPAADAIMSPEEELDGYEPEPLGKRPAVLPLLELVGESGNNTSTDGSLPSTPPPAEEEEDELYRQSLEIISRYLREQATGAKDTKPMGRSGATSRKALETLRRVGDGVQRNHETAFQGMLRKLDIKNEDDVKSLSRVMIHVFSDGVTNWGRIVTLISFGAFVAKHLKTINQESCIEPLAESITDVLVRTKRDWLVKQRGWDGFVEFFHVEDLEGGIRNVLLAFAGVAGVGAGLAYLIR

SMILES | IC50 (Mcl-1 protein) [µM] | other results
Cc1c(-c2c(-c3ccco3)sc3ncnc(N[C@H](Cc4ccccc4Cl)C(=O)O)c23)ccc(OCCN2CCN(C)CC2)c1Cl (single isomer, unassigned) [Example 10, 2-chloro-N-[5-{3-chloro-2-methyl-4-[2-(4-methylpiperazin-1-yl)ethoxy]phenyl}-6-(furan-2-yl)thieno[2,3-d]pyrimidin-4-yl]-D-phenylalanine] | – | inhibition at 3.3 µM (Mcl-1 protein; partial inhibitors, @ 3.3 μM test compound, read-out: percentage fluorescence polarisation inhibition, Mcl-1 FP): 72.8%; IC50 ([1]; Homo sapiens, NCI-H929): > 3750 nM
COc1ccccc1CC(Nc1ncnc2sc(-c3ccc(F)cc3)c(-c3ccc(OCCN4CCN(C)CC4)c(Cl)c3C)c12)C(=O)O [Example 1, N-[(5Sa)-5-{3-chloro-2-methyl-4-[2-(4-methylpiperazin-1-yl)ethoxy]phenyl}-6-(4-fluorophenyl)thieno[2,3-d]pyrimidin-4-yl]-2-methoxy-D-phenylalanine] | 0.127 | IC50 ([1]; Homo sapiens, NCI-H929): > 600 nM
COc1ccccc1C[C@@H](Nc1ncnc2sc(-c3ccc(F)cc3)c(-c3ccc(OCCN4CCN(C)CC4)c(Cl)c3C)c12)C(=O)O [Example 2, N-[(5Ra)-5-{3-chloro-2-methyl-4-[2-(4-methylpiperazin-1-yl)ethoxy]phenyl}-6-(4-fluorophenyl)thieno[2,3-d]pyrimidin-4-yl]-2-methoxy-D-phenylalanine] | – | percentage fluorescence polarisation inhibition, Mcl-1 FP (Mcl-1 protein; [2]): 56.9% @ 10 μM; IC50 [1]: > 600 nM
Cc1c(-c2c(-c3ccc(F)cc3)sc3ncnc(NC(Cc4ccccc4OCc4ccnn4C)C(=O)O)c23)ccc(OCCN2CCN(C)CC2)c1Cl [Example 3, N-[(5Sa)-5-{3-chloro-2-methyl-4-[2-(4-methylpiperazin-1-yl)ethoxy]phenyl}-6-(4-fluorophenyl)thieno[2,3-d]pyrimidin-4-yl]-2-[(1-methyl-1H-pyrazol-5-yl)methoxy]-D-phenylalanine] | 0.114 | IC50 ([1]; Homo sapiens, NCI-H929): 318 nM
CCOc1nccc(COc2ccccc2CC(Nc2ncnc3sc(-c4ccc(F)cc4)c(-c4ccc(OCCN5CCN(C)CC5)c(Cl)c4C)c23)C(=O)O)n1 [Example 4, N-[(5Sa)-5-{3-chloro-2-methyl-4-[2-(4-methylpiperazin-1-yl)ethoxy]phenyl}-6-(4-fluorophenyl)thieno[2,3-d]pyrimidin-4-yl]-2-[(2-ethoxypyrimidin-4-yl)methoxy]-D-phenylalanine] | 0.005 | IC50 ([1]; Homo sapiens, NCI-H929): 215 nM
CCc1sc2ncnc(N[C@H](Cc3ccccc3)C(=O)O)c2c1-c1cccc2c1c(Cl)cn2CCN(C)C [Example 231, N-((5Ra)-5-{3-chloro-1-[2-(dimethylamino)ethyl]-1H-indol-4-yl}-6-ethyl-thieno[2,3-d]pyrimidin-4-yl)-D-phenylalanine] | – | percentage fluorescence polarisation inhibition, Mcl-1 FP (Mcl-1 protein; [3]): 56.75% @ 50 μM
CCc1sc2ncnc(N[C@H](Cc3ccccc3)C(=O)O)c2c1-c1cccc2c1c(Cl)cn2CCN1CCCC1 [Example 232, N-((5Ra)-5-{3-chloro-1-[2-(pyrrolidin-1-yl)ethyl]-1H-indol-4-yl}-6-ethyl-thieno[2,3-d]pyrimidin-4-yl)-D-phenylalanine] | – | percentage fluorescence polarisation inhibition, Mcl-1 FP (Mcl-1 protein; [3]): 62.2% @ 50 μM
CCc1sc2ncnc(NC(Cc3ccccc3)C(=O)O)c2c1-c1cccc2c1c(Cl)cn2CCN1CCCC1 [Example 233, N-((5Sa)-5-{3-chloro-1-[2-(pyrrolidin-1-yl)ethyl]-1H-indol-4-yl}-6-ethyl-thieno[2,3-d]pyrimidin-4-yl)-D-phenylalanine] | 3.41 | –
CCc1sc2ncnc(NC(Cc3ccccc3)C(=O)O)c2c1-c1cccc2c1c(Cl)cn2CCN1CCCCC1 [Example 234, N-((5Ra)-5-{3-chloro-1-[2-(piperidin-1-yl)ethyl]-1H-indol-4-yl}-6-ethyl-thieno[2,3-d]pyrimidin-4-yl)-D-phenylalanine] | – | percentage fluorescence polarisation inhibition, Mcl-1 FP (Mcl-1 protein; [3]): 68.7% @ 50 μM
CCc1sc2ncnc(NC(Cc3ccccc3)C(=O)O)c2c1-c1cccc2c1c(Cl)cn2CCN1CCCCC1 [Example 235, N-((5Sa)-5-{3-chloro-1-[2-(piperidin-1-yl)ethyl]-1H-indol-4-yl}-6-ethyl-thieno[2,3-d]pyrimidin-4-yl)-D-phenylalanine] | 1.39 | –
CCc1sc2ncnc(NC(Cc3ccccc3)C(=O)O)c2c1-c1cccc2c1c(Cl)cn2CCN1CCOCC1 [Example 236, N-((5Ra)-5-{3-chloro-1-[2-(morpholin-4-yl)ethyl]-1H-indol-4-yl}-6-ethyl-thieno[2,3-d]pyrimidin-4-yl)-D-phenylalanine] | 13.5 | –
CCc1sc2ncnc(NC(Cc3ccccc3)C(=O)O)c2c1-c1cccc2c1c(Cl)cn2CCN1CCOCC1 [Example 237, N-((5Sa)-5-{3-chloro-1-[2-(morpholin-4-yl)ethyl]-1H-indol-4-yl}-6-ethyl-thieno[2,3-d]pyrimidin-4-yl)-D-phenylalanine] | 0.569 | –
CCc1sc2ncnc(NC(Cc3ccccc3)C(=O)O)c2c1-c1cccc2c1c(Cl)cn2CCN1CCN(C)CC1 [Example 238, N-((5Sa)-5-{3-chloro-1-[2-(4-methylpiperazin-1-yl)ethyl]-1H-indol-4-yl}-6-ethyl-thieno[2,3-d]pyrimidin-4-yl)-D-phenylalanine] | 2.78 | –
CCc1sc2ncnc(NC(Cc3ccccc3)C(=O)O)c2c1-c1cccc2c1c(Cl)cn2CCN1CCN(C)CC1 [Example 239, N-((5Ra)-5-{3-chloro-1-[2-(4-methylpiperazin-1-yl)ethyl]-1H-indol-4-yl}-6-ethyl-thieno[2,3-d]pyrimidin-4-yl)-D-phenylalanine] | 20.3 | –
CCc1sc2ncnc(NC(Cc3ccccc3)C(=O)O)c2c1-c1cccc2c1c(Cl)cn2CCCN1CCN(C)CC1 [Example 240, N-((5Sa)-5-{3-chloro-1-[3-(4-methylpiperazin-1-yl)propyl]-1H-indol-4-yl}-6-ethyl-thieno[2,3-d]pyrimidin-4-yl)-D-phenylalanine] | 0.958 | –
CCc1sc2ncnc(NC(Cc3ccccc3)C(=O)O)c2c1-c1cccc2c1c(Cl)cn2CCCN1CCN(C)CC1 [Example 241, N-((5Ra)-5-{3-chloro-1-[3-(4-methylpiperazin-1-yl)propyl]-1H-indol-4-yl}-6-ethyl-thieno[2,3-d]pyrimidin-4-yl)-D-phenylalanine] | 14.3 | –
CCc1sc2ncnc(NC(Cc3ccccn3)C(=O)O)c2c1-c1cccc2c1c(Cl)cn2CCN1CCN(C)CC1 [Example 248, N-((5Sa)-5-{3-chloro-1-[2-(4-methylpiperazin-1-yl)ethyl]-1H-indol-4-yl}-6-ethyl-thieno[2,3-d]pyrimidin-4-yl)-3-pyridin-2-yl-D-alanine] | 2.18 | –
CCc1sc2ncnc(NC(Cc3ccccn3)C(=O)O)c2c1-c1cccc2c1c(Cl)cn2CCN1CCN(C)CC1 [Example 249, N-((5Ra)-5-{3-chloro-1-[2-(4-methylpiperazin-1-yl)ethyl]-1H-indol-4-yl}-6-ethyl-thieno[2,3-d]pyrimidin-4-yl)-3-pyridin-2-yl-D-alanine] | 36.8 | –
O=C(O)C(Cc1ccccn1)Nc1ncnc2sc(C(F)F)c(-c3cccc4ccccc34)c12 [Example 250, N-[6-(difluoromethyl)-(5Sa)-5-(naphthalen-1-yl)thieno[2,3-d]pyrimidin-4-yl]-3-pyridin-2-yl-D-alanine] | 0.617 | –
O=C(O)C(Cc1ccccn1)Nc1ncnc2sc(C(F)F)c(-c3cccc4ccccc34)c12 [Example 251, N-[6-(difluoromethyl)-(5Ra)-5-(naphthalen-1-yl)thieno[2,3-d]pyrimidin-4-yl]-3-pyridin-2-yl-D-alanine] | 12.1 | –
CCCc1sc2ncnc(NC(Cc3ccccc3)C(=O)O)c2c1-c1cccc2ccccc12 [Example 252, N-[(5Sa)-5-(naphthalen-1-yl)-6-propylthieno[2,3-d]pyrimidin-4-yl]-D-phenylalanine] | 0.223 | –
CCCc1sc2ncnc(NC(Cc3ccccc3)C(=O)O)c2c1-c1cccc2ccccc12 [Example 253, N-[(5Ra)-5-(naphthalen-1-yl)-6-propylthieno[2,3-d]pyrimidin-4-yl]-D-phenylalanine] | 1.36 | –
CCc1sc2ncnc(N[C@H](Cc3ccccc3)C(=O)OC)c2c1-c1cccc2ccccc12 [Example 254, methyl N-[6-ethyl-(5Sa)-5-(naphthalen-1-yl)thieno[2,3-d]pyrimidin-4-yl]-D-phenylalaninate] | – | percentage fluorescence polarisation inhibition, Mcl-1 FP (Mcl-1 protein; [4]): 22.08% @ 200 μM
CCc1sc2ncnc(NC(Cc3ccccc3)C(=O)OC)c2c1-c1cccc2ccccc12 [Example 255, methyl N-[6-ethyl-(5Ra)-5-(naphthalen-1-yl)thieno[2,3-d]pyrimidin-4-yl]-D-phenylalaninate] | – | percentage fluorescence polarisation inhibition, Mcl-1 FP (Mcl-1 protein; [4]): 41.08% @ 200 μM
CC#Cc1sc2ncnc(N[C@H](Cc3ccccc3OCc3ccnn3C(C)(C)C)C(=O)OCC)c2c1-c1ccc(OCCN2CCN(C)CC2)c(Cl)c1C [Example 257, ethyl 2-[(1-tert-butyl-1H-pyrazol-5-yl)methoxy]-N-[(5Sa)-5-{3-chloro-2-methyl-4-[2-(4-methylpiperazin-1-yl)ethoxy]phenyl}-6-(prop-1-yn-1-yl)thieno[2,3-d]pyrimidin-4-yl]-D-phenylalaninate] | – | percentage fluorescence polarisation inhibition, Mcl-1 FP (Mcl-1 protein; [2]): 57.15% @ 10 μM
CCOC(=O)C(Cc1ccccc1OCc1ccnc(-c2ccccc2OCCOC)n1)Nc1ncnc2sc(-c3ccc(F)cc3)c(-c3ccc(OCCN(C)C)c(Cl)c3C)c12 [Example 260, ethyl N-[(5Sa)-5-{3-chloro-4-[2-(dimethylamino)ethoxy]-2-methylphenyl}-6-(4-fluorophenyl)thieno[2,3-d]pyrimidin-4-yl]-2-({2-[2-(2-methoxyethoxy)phenyl]pyrimidin-4-yl}methoxy)-D-phenylalaninate] | 1.98 | –
